# In US8410056B2, “Pro-oxidant anti-cancer compounds” (priority 2006, dated 2013):
# Entries after “also recorded” stand apart in the source; their conditions may differ.
# Assays:
# cancer cells = experiment: IC50, killing of cancer cells in vitro; type: cell-based; conditions: approximately
# Excerpt: FIG. 9. […] IC50: Concentration in micromolar that is needed of a particular drug to induce 50% killing of cancer cells in vitro. −log Kd: inverse log of the particular drug's binding affinity.
# In FIG. 9, the inventors analysed the correlation between the binding affinities of the vitamin E analogues for the ubiquinone site and their biological activity in causing apoptosis of cancer cells. The result indicates a direct relationship between the binding affinity to the site and their ability to kill cancer cells. The differences observed between the docking and the list of results reflects the biological accessibility of the compounds reaching the complex II target site. Thus, the IC50 reflects not only the ability of the analogues to bind to the site, but also their ability to enter across the cell membrane and gain access to the mitochondrial matrix. […] The best comparison would be made by comparing the Autodock results with an enzyme assay using purified complex II kits commercially available (MS201 COMPLEX II IMMUNOCAPTURE KIT MitoScience LLC, 1850 Millrace Drive, Suite 3A, Eugene, Oreg. 97403, USA, http://www.mitosciences.com).
# [1] = system: MDA-MB-453, MCF-7 and NeuTL breast cancer cells; experiment: ATP bioluminescence assay; type: cell-based, human; murine; conditions: 6 or 24 h; normoxia or hypoxia
# Experimental: (§1) Cell culture and treatment. […] Cells were cultured in DMEM with 10% FCS, 100 U/ml penicillin and 100 μg/ml streptomycin at 37° C. in a humidified atmosphere of 5% CO2. Mitochondrial complex I-deficient (Breen and Scheffler 1979; DeFrancesco et al 1976; Scheffler et al 2004) and complex II-deficient cells (Albayrak et al 2003; Oostveen et al 1995) were grown in DMEM with 10% FCS, […] glucose and non-essential amino acids.
# At approximately 70% confluency, cells were treated with up to 50 μM α-TOS (Sigma), up to 100 μM 3-BP (Aldrich) or 30 ng/ml of human recombinant tumor necrosis factor-related apoptosis—inducing ligand (TRAIL) (Weber et al, 2002) under normoxic or hypoxic conditions. For hypoxia, cells overlaid with nitrogen-purged medium were placed in a hypoxic chamber pre-flushed extensively with nitrogen. The hypoxic chamber with cells was then placed in the incubator as required. α-TOS was dissolved in ethanol and used such that the final ethanol concentration in cell culture medium was <0.1% (v/v). Stock solutions of 3-BP were prepared in PBS prior to use.
# ATP measurement. MDA-MB-453 and NeuTL cells were seeded at 2×10^5 per ml and MCF-7 cells at 1.2×10^5 per ml into 96-well tissue culture microtitre plates and allowed to recover overnight before use. Cells were incubated for 6 or 24 h with α-TOS or 3-BP under normoxia or hypoxia as described above. ATP levels were then measured using an ATP bioluminescence assay kit HSII (Roche Applied Science) according to the manufacturer's instructions. Briefly, control or treated cells were transferred into black microtitre plates after incubation for 5 min at room temperature with the cell lysis reagent. Luciferase reagent was added and the signal detected immediately using a Fluorostar Optima plate reader (BMG Labtech). Triplicate wells were read for each condition and data evaluated using a standard calibration curve prepared with known concentrations of ATP.
# [2] = system: Chinese hamster lung fibroblasts (B1, B10, B9, B9rec cells); experiment: ROS, SDH activity and apoptosis in complex I- and complex II-deficient cells; type: cell-based
# Experimental: as §1
# Assessment of ROS accumulation. Cellular ROS were detected with the probe dihydroethidinium (DHE) (Molecular Probes) by flow cytometry (Weber et al, 2003), or by trapping with 5,5-dimethyl-1-pyrroline N-oxide (DMPO; Sigma) using electron paramagnetic resonance (EPR) spectro-scopy (Weber et al, 2003). In some studies, the cells were pre-treated for 1 h with 2 μM MitoQ (James et al, 2005) or coincubated with SOD (PEG-SOD, 750 units/ml; Sigma).
# Apoptosis assessment. Apoptosis was quantified using the annexin V-FITC method, which detects phosphatidyl serine externalized in the early phases of apoptosis (Boersma et al, 1996). Briefly, cells were plated at 10^5 per well in 24-well plates and, after an overnight recuperation, treated with α-TOS or 3-BP alone or in combination. Floating and attached cells were harvested, washed with PBS, resuspended in 0.2 ml binding buffer (10 mM Hepes, 140 mM NaCl, 5 mM CaCl2, pH 7.4), incubated for 30 min at 4° C. with 2 μl annexin V-FITC (PharMingen), supplemented with 200 μl of 50 μg/ml propidium iodide (PI; Sigma), and analyzed by flow cytometry (FACScalibur, Becton Dickinson) using channel 1 for annexin V-FITC binding and channel 2 for PI staining. Cell death was quantified as the percentage of cells with increased annexin V binding and PI staining.
# Complex I- and complex II-deficient cells were also used to confirm the above in vitro results of Example 6.
# mesothelioma = experiment: Clinical study, patient with mesothelioma; type: in vivo
# Experimental: α-TOS was used to treat mesothelioma in a human cancer patient. […] The blood plasma levels were monitored and levels of α-TOS in the plasma attained 50 μM over prolonged periods during continual application. This is more than sufficient to kill the cancer cells based on in vitro analysis.
# The patient was originally receiving high dose opiate medications, neuropathic pain medications, home oxygen, and was predicted to have a life expectancy of 6-8 weeks. After treatment with α-TOS, the patient no longer required analgesia or oxygen.
# In December 2005, the patient started receiving transdermal delivery of α-TOS, prepared in a base cream and solubilised with dimethyl sulfoxide (DMSO).
# In April 2007, therapy with α-TOS was commenced using a modified formulation mixed in a lipodermal cream (see below). […] In addition, a palpable lesion was visible growing out between the ribs and the right anterior chest wall. The patient was in very poor condition with a low ECOG- no CT scan could be performed at the time of commencing the α-TOS treatment because the patient was too moribund.
# α-TOS formulation: 500 gms of Lipoderm cream plus 60 gms α-TOS compounded by the hospital pharmacy. About 30 gms of compounded mix was administered every few days, and the upper body was wrapped in plastic film (“saran wrap”) to improve absorption.
# [3] = system: erbB2 highly positive breast carcinomas
# Experimental: (A) Nude mice were inoculated with MCF-7 cells and, after tumors became established, the animals were treated once every 3 d with 10 μmoles per mouse of α-TOS dissolved in DMSO or with DMSO alone, by intraperitoneal (i.p.) injection. Tumor size was measured using calipers and was correlated to the size of the carcinomas at the onset of the therapy. Four animals were used in each group. The results shown are mean values±S.E. The symbol ‘*’ denotes significant difference (p<0.05). (B) Female FVB/N erbB2 mice with palpable tumors (see General Materials and Methods) received either 10 μmoles α-TOS solubilized in corn oil/4% ethanol (n=11) or the corn oil/4% ethanol alone (control, n=9) by i.p. injection once every 3 d, or 0.2 μmoles 3-BP (n=8) in PBS at the tumor site every day. Tumor size was recorded using calipers. Two independent experiments were conducted. Results are represented as mean values±S.E. The symbol ‘*’ denotes significant difference (p<0.05) in the analysis of variance between the 3-BP and α-TOS curves.
# Mouse tumor experiments. Nude mice were inoculated subcutaneously with MCF-7 cells (2×10^6 cells/mouse). After tumors developed (diameter of 3-7 mm), mice were injected intraperitoneally with 10 μmoles α-TOS in DMSO every 3 days. Control mice were injected with an equal volume (100 μl) of DMSO only. Tumor size was estimated by measuring with digital calipers. A colony of transgenic FVB/N2O2 rat c-neu mice carrying the rat HER-2/neu protooncogene driven by the MMTV promoter on the H-2^q FVB/N background (Guy et al, 1992) was established at the Griffith University Animal Facility and maintained under strict inbreeding conditions. The presence of the transgene was routinely confirmed by PCR. Approximately 70% of the female mice developed spontaneous mammary carcinomas with a mean latency time of 10 months. Female transgenic FVB/N2O2 rat c-neu mice bearing progressively growing tumors with a mean diameter of 10±5 mm were randomly assigned to control or treatment groups. Tumor size was measured using digital calipers. […]
# [4] = compared to parental (B1) or B10 cells
compound,measurement,setting,value
"Cc1c(C)c2c(c(C)c1OC(=O)CCC(=O)O)CC[C@@](C)(CCC[C@H](C)CCC[C@H](C)CCCC(C)C)O2 [Compound 1, α-tocopheryl succinate]",IC50,cancer cells,40 to 50 µM
same,cellular ATP levels,[1],only significantly reduced cellular ATP levels when applied at the higher concentration of 50 μM
same,"apoptosis in B1, B10 and B9 cells",[2],initiated apoptosis
same,cell killing in CII-reconstituted B9 cells,[2]; CybL-mutant (B9) cells after reconstitution of CII,restored cell sensitivity to α-TOS-induced killing
same,ROS accumulation in CII-dysfunctional B9 cells,[2]; [4],lower levels of ROS accumulation
same,apoptosis in CII-dysfunctional B9 cells,[2]; [4],relatively resistant to apoptosis
same,clinical effect,"mesothelioma; human patient, α-TOS therapy",worked very effectively; also recorded: shrunk dramatically
same,side effects,"mesothelioma; human patient, α-TOS therapy",non-toxic with no observable side-effects and was well tolerated; also recorded: no obvious side-effects from the α-TOS therapy apart from a mild itch
same,levels of α-TOS in the plasma,"mesothelioma; human, transdermal, continual application, over prolonged periods",50 µM
same,"clinical response, DMSO base cream",mesothelioma; transdermal α-TOS in base cream solubilised with DMSO,showed clinical response
same,"side effects, DMSO base cream","mesothelioma; transdermal α-TOS in base cream solubilised with DMSO, about 8 weeks",major skin reaction problems secondary to DMSO
same,reduction in the average size of tumors,"[3]; about, over the 2 weeks of treatment, 10 μmoles i.p. every 3 d",30-40%
same,tumor growth,"[3]; α-TOS 10 μmoles i.p. every 3 d, 3-BP 0.2 μmoles daily intratumorally",statistically more effective (p<0.05 by analysis of covariance) than 3-BP
